How the values were obtained:
Assay type in all cases: cell-based, feline
[1] = system: fTAS2R38; test: Fluo-4AM calcium assay, stable G[alpha]16-gustducin 44/TAS2R38 cell line
Source text: Fluo-4AM is a fluorescent indicator of intracellular calcium dynamics (change in concentration) and allows monitoring changes in the calcium concentration, particularly an increase in response to receptor activation occurring after agonist exposure.

[2] = system: fTAS2R38; test: Fluo-4AM calcium assay, cells transiently expressing fTAS2R38
Method: Cell lines that transiently express a desired TAS2R disclosed herein were generated by transfecting the appropriate expression vector, e.g., pcDNA3.1D-FLAGV5His-TAS2R38, constructed as described above in Ex. 2A into cells of a eukaryotic cell line (Life Technologies, Cat# R700-07).
(§1) On day 0, 60,000 cells per well were plated on poly lysine coated, black 96 well plates with clear bottoms (Costar). The following day the cells were transfected with 150 ng TAS2R38 expression vector, e.g., pcDNA3.1D-FLAGV5His (Invitrogen) along with 45 ng of Ga16 chimera containing the last 44 amino acids of rat gustducin (Gα16gust44) with 0.5 ul Lipofectamine 2000 (Invitrogen) per well. Cells were then incubated 22-44 hours at 37° C. 5% CO2.
The expression of fTAS2R38 was evaluated by testing for the presence of a functional response to a known hTAS2R38 ligand (e.g., PTC), determined via automated calcium imaging using a Fluo-4AM (Life Technologies Corporation) Calcium Assay. Fluo-4AM is a fluorescent indicator of intracellular calcium dynamics (change in concentration) and allows monitoring changes in the calcium concentration, particularly an increase in response to receptor activation occurring after agonist exposure.
(§2) Testing for a functional response of fTAS2R38 to the known hTAS2R38 ligands, PTC and PROP, and of fTAS2R43 to the known hTAS2R43 ligands, aloin, denatonium and saccharine), was determined via automated calcium imaging using the Fluo-4AM (Life Technologies Corporation) Calcium Assay.

[3] = system: fTAS2R43; test: Fluo-4AM calcium assay, cells transiently expressing fTAS2R43
Method: as §1
Generation of cell lines transiently expressing the other fTAS2Rs disclosed herein was analogous.
as §2

CCCc1cc(=O)[nH]c(=S)[nH]1 [PROP, 6-n-propylthiouracil]
stimulation of stable fTAS2R38 cell line ([1]; 30 μm PROP): not stimulated
stimulation of fTAS2R38 ([2]; 30 μM PROP, transiently transfected cells): not stimulated

NC(=S)Nc1ccccc1 [PTC, phenylthiocarbamide]
stimulation over baseline ([1]; 100 μM PTC): 90%
activation over baseline ([2]; 100 μM PTC, transiently transfected cells): 81%

O=C1c2c(O)cccc2C([C@@H]2O[C@H](CO)[C@@H](O)[C@H](O)[C@H]2O)c2cc(CO)cc(O)c21 (stereo partly shown) [aloin]
activation over baseline ([3]; 300 μM aloin, transiently transfected cells): 45%

CC[N+](CC)(CC(=O)Nc1c(C)cccc1C)Cc1ccccc1 [denatonium]
activation over baseline ([3]; 1 mM denatonium, transiently transfected cells): 17%

CCCN(CCC)S(=O)(=O)c1ccc(C(=O)O)cc1 [probenecid, p-(dipropylsulfamoyl)benzoic acid]
inhibition of the response to aloin ([3]; 1 mM probenecid): inhibited
inhibition of the response to denatonium ([3]; 1 mM probenecid): inhibited
inhibition of the response to PTC ([2]; 1 mM probenecid): inhibited

O=C1NS(=O)(=O)c2ccccc21 [saccharin]
stimulation of fTAS2R43 ([3]; 6.7 mM saccharin, transiently transfected cells): not stimulated

Source: patent publication US10174096B2, “Feline bitter taste receptors and methods” (Applied Food Biotechnology, Inc., priority 2013, dated 2019)
